Values after ≈ are worked out from the molar mass of the structure shown. Like-named read-outs stand apart in the source and are kept apart here.

The test system of one experiment is Klebsiella 63. In words: MIC plate test. The format is cell-based. The note with it: nutrient medium, 37°C, 24 hours. The source says: (§1) The antimicrobial activity of these compounds can be conveniently observe in in vitro and in vivo models. For example, their minimum inhibitory concentration (MIC) can be determined in the plate test on a complete nutrient base of the following composition: 10 g of proteose-peptone, 10 g of veal infusion, 2 g of dextrose, 3 g of sodium chloride, 2 g of disodium phosphate, 1 g of sodium acetate, 0.01 g of adenine sulfate, 0.01 g of guanine hydrochloride, 0.01 g of uracil, 0.01 g of xantine, 12 g of agar-agar and 1 liter of water. With an incubation temperature of 37°C and an incubation time of 24 hours, the following typical values can be observed: […]

The test system of another experiment is Klebsiella 8085. In words: MIC plate test. The settings on record: nutrient medium, 37°C, 24 hours. The format is cell-based.
From the text: as §1

The subject of a further experiment is Proteus vulgaris 1017. In words: MIC plate test. The settings on record: nutrient medium, 37°C, 24 hours. Type of experiment: cell-based.
From the text: as §1

The subject of experiment [1] is Pseudomonas aeruginosa BONN. In words: MIC plate test. Type of experiment: cell-based. The note with it: nutrient medium, 37°C, 24 hours.
From the text: as §1

Another experiment deals with Pseudomonas aeruginosa W. Put plainly: MIC plate test. The format is cell-based. The note with it: nutrient medium, 37°C, 24 hours.
From the text: as §1

Experiment [2] relates to Staphylococcus aureus 133. In words: MIC plate test. Type of experiment: cell-based. The note with it: nutrient medium, 37°C, 24 hours.
From the text: as §1

A further experiment relates to Streptococcus pyogenes W. In words: MIC plate test. Type of experiment: cell-based. The note with it: nutrient medium, 37°C, 24 hours.
From the text: as §1

The test system of the next experiment is E. coli A 261. Put plainly: MIC plate test. Type of experiment: cell-based, Escherichia coli. The note with it: 37°C, 24 hours.
From the text: as §1

Another experiment relates to E. coli C 165. Put plainly: MIC plate test. The settings on record: 37°C, 24 hours. The format is cell-based, Escherichia coli.
From the text: as §1

A further experiment concerns E.coli C 165. Put plainly: in vivo infection of white mice, subcutaneous administration. The settings on record: 15 minutes before intraperitoneal infection, 24 hours later. An excerpt: (§2) The above in vitro data are confirmed in in vivo infections.
Experiment [3] relates to Staphylococcus aureus 133. The experiment is described as above. The settings on record: 15 minutes before intraperitoneal infection, 24 hours later.
From the text: as §2

Experiment [4] in a line: growth promoting activity and fodder utilisation in chicken. The note with it: 10 PPM in fodder. The format is in vivo. Here is the method:
The growth promoting activity of the new compounds and their effectiveness in improving the fodder utilisation may be illustrated by the following data:
Test animals : chicken (kept in cages, with complete fodder and water ad libitum)
The active ingredient is mixed in a finely divided form to the fodder according to customary methods. The tests were performed with 12 animals in each tested group.
Active ingredient: compound of Example 4
Concentration of the active ingredient in the fodder: […]

Turning to `Nc1n[n+]([O-])c2ccccc2[n+]1[O-]` [Compound A, 3-amino-1,2,4-benzotriazine-1,4-di-N-oxide], the MIC (in general, the lowest concentration that inhibits growth of the organism) was found to be 4 µg/mL (≈ 22.5 µM) in the experiment on Klebsiella 63 (read-out: MIC); 2 µg/mL (≈ 11.2 µM) with Klebsiella 8085 (read-out: MIC); 2 µg/mL (≈ 11.2 µM) in the experiment with Proteus vulgaris 1017 (read-out: MIC); 8 µg/mL (≈ 44.9 µM) in experiment [1] (read-out: MIC); 64 µg/mL (≈ 359 µM) in the experiment with Pseudomonas aeruginosa W (read-out: MIC); 16 µg/mL (≈ 89.8 µM) in [2] (read-out: MIC). Further, the minimal inhibitory concentration (MIC) in the experiment with Streptococcus pyogenes W (read-out: MIC) came to 32 µg/mL (≈ 180 µM); in the experiment on E. coli A 261 (Escherichia coli, A261, nutrient medium, read-out: MIC) it was 4 µg/mL (≈ 22.5 µM); with E. coli C 165 (Escherichia coli, C165, nutrient medium, read-out: MIC), 4 µg/mL (≈ 22.5 µM). Further, the ED50 (in general, the dose at which the effect has come halfway, by size or by number of responders) with E.coli C 165 (Escherichia coli, C165, sc, read-out: ED50) worked out at 20 mg/kg.
As for “isomeric mixture of 6-chloro- and 7-chloro-3-amino-1,2,4-benzotriazine-1,4-di-N-oxide [Compound B]”, the minimal inhibitory concentration (MIC) in the experiment on Klebsiella 63 stood at 8 µg/mL; in the experiment with Klebsiella 8085, 1 µg/mL; against Proteus vulgaris 1017, 4 µg/mL; in [1] it was 128 µg/mL; in the experiment with Pseudomonas aeruginosa W, 128 µg/mL; in experiment [2], 8 µg/mL. In addition, the minimal inhibitory concentration (MIC) in the experiment with Streptococcus pyogenes W, against E. coli A 261 (nutrient medium) and against E. coli C 165 (nutrient medium) was 8 µg/mL in each case. In experiment [3], the 50% effective dose (ED50) was 250 mg/kg.
For the molecule “isomeric mixture of 6-methoxy and 7-methoxy-3-amino-1,2,4-benzotriazine-1,4-di-N-oxide [Compound C]”, the minimum inhibitory concentration (MIC) against Klebsiella 63 turned out to be 2 µg/mL; against Klebsiella 8085 it was 1 µg/mL; in the experiment on Proteus vulgaris 1017, 1 µg/mL; in experiment [1], 32 µg/mL; against Pseudomonas aeruginosa W it was 64 µg/mL; in experiment [2] it was 4 µg/mL. Further, the values for the minimal inhibitory concentration (MIC) against Streptococcus pyogenes W, in the experiment with E. coli A 261 (nutrient medium) and with E. coli C 165 (nutrient medium) were 4 µg/mL, 2 µg/mL and 2 µg/mL, respectively. Also, the ED50 with E.coli C 165 worked out at 25 mg/kg; in experiment [3] it was 40 mg/kg. The “Consumption of fodder in relation to the control group” value in experiment [4] (week 0) turned out to be 100%; in [4] (week 1) it was 85.7%; in experiment [4] (week 2) it was 90.4%; in [4] (week 3), 93.4%; in experiment [4] (week 4) it was 98.5%; in experiment [4] (week 5), 101.1%. Besides, the “Consumption of fodder in relation to the control group” value in experiment [4] (week 6) was determined as 92.2%. Further, the “Weight increase in relation to the control group” value in [4] (week 0) is 100%; in experiment [4] (week 1), 102.8%; in experiment [4] (week 2) it was 109.0%; in experiment [4] (week 3), 105.8%; in [4] (week 4), 110.4%; in [4] (week 5), 106.4%. Further, the “Weight increase in relation to the control group” value in experiment [4] (week 6) worked out at 106.0%. Further, the “weight increase (all animals)” value was determined as 75 gram in experiment [4] (week 0); 148.4 gram in [4] (week 1); 276.7 gram in experiment [4] (week 2); 475.0 gram in experiment [4] (week 3); 761.8 gram in experiment [4] (week 4); 1019.1 gram in experiment [4] (week 5). The “weight increase (all animals)” value in experiment [4] (week 6) was determined as 1296.4 gram.
